# Patent publication EP1202746B1, “NSAID AND EGFR KINASE INHIBITOR CONTAINING COMPOSITION FOR THE TREATMENT OR INHIBITION OF COLONIC POLYPS AND COLORECTAL CANCER” (Wyeth Holdings Corporation, priority 1999, dated 2001)
# Test system: intestinal polyps (adenomas)
# Assay: Min mouse intestinal polyp test procedure emulating familial adenomatous polyps (FAP); polyps counted on day 61
# Type: in vivo, Min mouse (C57BL/6J-Min/+)
# Source text: The procedure described below emulates familial adenomatous polyps (FAP) in humans using the Min mouse (C57BL/6J-Min/+), which is a strain which has […] of the APC gene. These animals develop multiple intestinal polyps (adenomas) that ultimately progress to form adenocarcinomas. The polyps that develop in Min mice express EGFR and have activated COX-2.
# Test animals were divided into four treatment groups: Group I, control; Group II, N-[4-[(3-bromophenyl)amino]-6-quinazolinyl]-2-butynamide; Group III, sulindac; and Group IV, combination of sulindac and N-[4-[(3-bromophenyl)amino]-6-quinazolinyl]-2-butynamide (hereinafter referred to as the NSAID/EGFR kinase inhibitor combination). The test compound was blended with a standard murine chow and animals were given ad libitum access to the food, in quantities corresponding to the following approximate daily dosages: Group II - 40 mg/kg/day N-[4-[(3-bromophenyl)amino]-6-quinazolinyl]-2-butynamide; […]; and Group IV - 40 mg/kg/day N-[4-[(3-bromophenyl)amino]-6-quinazolinyl]-2-butynamide and 20 mg/kg/day sulindac. The animals were treated for 60 days. The food was weighed once per week to determine consumption, and the animals also weighed weekly. On day 61, the animals were euthanized with CO2 inhalation, and the entire intestinal tract from stomach to anus was removed. The intestinal tract was injected with Bouins fixative, and allowed to fix for several days. The intestinal tracts were then opened and the number of polyps counted. Statistical analysis was performed using the Student's t-Test; a p value of ≤ 0.05 is considered statistically significant.
# The animals were treated for 60 days. The food was weighed once per week to determine consumption, and the animals also weighed weekly. On day 61, the animals were euthanized with CO2 inhalation, and the entire intestinal tract from stomach to anus was removed. The intestinal tract was injected with Bouins fixative, and allowed to fix for several days. The intestinal tracts were then opened and the number of polyps counted. Statistical analysis was performed using the Student's t-Test; a p value of ≤ 0.05 is considered statistically significant.
smiles,measurement,setting,value
CCOc1cc2ncc(C#N)c(Nc3ccc(F)c(Cl)c3)c2cc1NC(=O)C=CCN(C)C [4-dimethylamino-but-2-enoic acid [4-(3-chloro-4-fluoro-phenylamino)-3-cyano-7-ethoxy-quinolin-6-yl]-amide],reduced polyp numbers,"third run, alone, 20 mg/kg, 60 days, versus control",87%
CC#CC(=O)Nc1ccc2ncnc(Nc3cccc(Br)c3)c2c1 [N-[4-[(3-bromophenyl)amino]-6-quinazolinyl]-2-butynamide],Number of Polyps,"Group II: 40 mg/kg/day in chow, 60 days, control Group I 32.3 ± 20.7",15.6 ± 10.6
CC1=C(CC(=O)O)c2cc(F)ccc2/C1=C\c1ccc([S+](C)[O-])cc1 (centres unmarked) [sulindac],Number of Polyps,"Group III: 20 mg/kg/day sulindac in chow, 60 days, control Group I 32.3 ± 20.7",10.0 ± 6.6
same,Number of Polyps,"third run, Group III: 5 mg/kg/day sulindac in chow, 60 days, control Group I 19.5 ± 14.1",20.6 ± 11.8
same,polyp numbers (result in words),"third run, sulindac alone at the 5mg/kg dose",did not reduce polyp numbers at all
